Measurements from paper PMC4050194 (FEBS Open Bio, 2014).

Biological target: T1, Cra (FruR) protein of Pseudomonas putida (Cra^PP) (Pseudomonas putida, UniProt Q88PQ6)
T1 sequence (Q88PQ6 1-331): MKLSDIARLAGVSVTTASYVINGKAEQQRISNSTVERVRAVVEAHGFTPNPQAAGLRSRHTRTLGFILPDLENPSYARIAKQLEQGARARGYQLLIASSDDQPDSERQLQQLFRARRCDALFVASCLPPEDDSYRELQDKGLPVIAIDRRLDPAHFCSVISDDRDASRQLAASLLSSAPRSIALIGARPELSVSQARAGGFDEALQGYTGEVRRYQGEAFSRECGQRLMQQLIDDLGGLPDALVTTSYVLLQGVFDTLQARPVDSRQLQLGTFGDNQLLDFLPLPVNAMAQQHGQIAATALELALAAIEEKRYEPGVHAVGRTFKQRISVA
Experiment: ITC with purified Cra
Assay type: binding

In the case of `O=P(O)(O)OCC1(O)O[C@H](CO)[C@@H](O)[C@@H]1O` (stereo partly shown) [F1P, fructose 1-phosphate], the Kd is reported as roughly 200 nM.
